Columns and labels:
[1] = molecular target: T1, PPAR gamma-LBD (Homo sapiens, UniProt P37231); test: PPAR assay, PPARγ; type: binding; details: sample final concentration 100 μM; positive control rosiglitazone; FIGS. 7 and 8
T1 sequence (P37231 238-503 limits assumed): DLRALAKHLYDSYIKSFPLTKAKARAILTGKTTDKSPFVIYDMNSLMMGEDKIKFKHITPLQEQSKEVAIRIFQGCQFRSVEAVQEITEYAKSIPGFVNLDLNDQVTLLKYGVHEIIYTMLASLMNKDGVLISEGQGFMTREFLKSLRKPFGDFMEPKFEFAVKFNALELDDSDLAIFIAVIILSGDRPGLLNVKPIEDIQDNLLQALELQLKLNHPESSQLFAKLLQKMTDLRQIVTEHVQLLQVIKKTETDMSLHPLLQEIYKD

[2] = molecular target: T2, PPAR alpha-LBD (Homo sapiens, UniProt Q07869); test: PPAR assay, PPARα; details: for PPARα activation (competitive activation rate), compared with fenofibrate: sample final concentration 100 μM, positive control fenofibrate, FIGS. 5 and 6; for simultaneous activation of PPARα and PPARγ: summary of the PPARα and PPARγ assays, sample 100 μM
T2 sequence (Q07869 239-466 limits assumed): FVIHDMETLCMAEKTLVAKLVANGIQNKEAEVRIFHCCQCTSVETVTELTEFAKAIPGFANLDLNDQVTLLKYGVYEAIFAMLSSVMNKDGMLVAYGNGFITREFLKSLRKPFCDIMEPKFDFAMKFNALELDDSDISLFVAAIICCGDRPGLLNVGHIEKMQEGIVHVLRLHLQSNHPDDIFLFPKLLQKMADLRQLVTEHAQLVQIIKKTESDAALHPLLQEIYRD

Compound | melting point [°C] | other results
Oc1ccccc1-c1nc2ccccc2[nH]1 [Compound 53, 2-(1H-benzo[d]imidazol-2-yl)phenol] |  | PPARγ activation (competitive activation rate), compared with rosiglitazone [1]: very excellent PPARγ activation agent compared to rosiglitazone; PPARα activation (competitive activation rate), compared with fenofibrate [2]: very excellent PPARα activation agent compared to fenofibrate; simultaneous activation of PPARα and PPARγ [2]: simultaneously activates PPARα and PPARγ
COc1ccc(C2N[C@H](C(=O)O)CS2)cc1OC (mixture of isomers) [Compound 8, (2R/S,4R)-2-(3,4-dimethoxyphenyl)thiazolidine-4-carboxylic acid] | 173.6 to 175.4 | 
COc1cc(-c2nc3cc(C(=O)O)ccc3[nH]2)cc(OC)c1OC [Compound 67, 2-(3,4,5-trimethoxyphenyl)-1H-benzo[d]imidazole-5-carboxylic acid] |  | PPARγ activation (competitive activation rate), compared with rosiglitazone [1]: very excellent PPARγ activation agent compared to rosiglitazone; PPARα activation (competitive activation rate), compared with fenofibrate [2]: very excellent PPARα activation agent compared to fenofibrate; simultaneous activation of PPARα and PPARγ [2]: simultaneously activates PPARα and PPARγ
COc1ccc(-c2nc3cc(C(F)(F)F)ccc3s2)cc1O [Compound 33, 2-methoxy-5-(5-(trifluoromethyl)benzo[d]thiazol-2-yl)phenol] | 142.1 to 144.5 | 
CCOc1cc(-c2nc3ccccc3s2)ccc1O [Compound 17, 4-(benzo[d]thiazol-2-yl)-2-ethoxyphenol] |  | PPARγ activation (competitive activation rate), compared with rosiglitazone [1]: very excellent PPARγ activation agent compared to rosiglitazone; PPARα activation (competitive activation rate), compared with fenofibrate [2]: very excellent PPARα activation agent compared to fenofibrate; simultaneous activation of PPARα and PPARγ [2]: simultaneously activates PPARα and PPARγ
CC(C)(Oc1ccc(-c2nc3ccccc3s2)cc1)C(=O)O [Compound 97, 2-(4-(benzo[d]thiazol-2-yl)phenoxy)-2-methylpropanoic acid] |  | PPARγ activation (competitive activation rate), compared with rosiglitazone [1]: very excellent PPARγ activation agent compared to rosiglitazone; PPARα activation (competitive activation rate), compared with fenofibrate [2]: very excellent PPARα activation agent compared to fenofibrate; simultaneous activation of PPARα and PPARγ [2]: simultaneously activates PPARα and PPARγ
COc1ccc(-c2nc3ccccc3s2)c(OC)c1 [Compound 22, 2-(2,4-dimethoxyphenyl)benzo[d]thiazole] | 137.4 to 138.9 | 
COc1ccc(-c2nc3cc(C(F)(F)F)ccc3s2)cc1OC [Compound 35, 2-(3,4-dimethoxyphenyl)-5-(trifluoromethyl)benzo[d]thiazole] | 120.4 to 121.6 | 
COc1cc(-c2nc3ccccc3s2)ccc1O [Compound 16, 4-(benzo[d]thiazol-2-yl)-2-methoxyphenol] |  | PPARγ activation (competitive activation rate), compared with rosiglitazone [1]: very excellent PPARγ activation agent compared to rosiglitazone; PPARα activation (competitive activation rate), compared with fenofibrate [2]: very excellent PPARα activation agent compared to fenofibrate; simultaneous activation of PPARα and PPARγ [2]: simultaneously activates PPARα and PPARγ
c1ccc(COc2ccc(-c3nc4ccccc4[nH]3)cc2)cc1 [Compound 114, 2-(4-(benzyloxy)phenyl)-1H-benzo[d]imidazole] |  | PPARα activation (competitive activation rate), compared with fenofibrate [2]: very excellent PPARα activation agent compared to fenofibrate
COc1cc(C2N[C@H](C(=O)O)CS2)cc(OC)c1O (mixture of isomers) [Compound 12, (2R/S,4R)-2-(4-hydroxy-3,5-dimethoxyphenyl)thiazolidine-4-carboxylic acid] | 139.6 to 141 | 
Oc1cc(O)cc(-c2nc3ccccc3s2)c1 [Compound 21, 5-(benzo[d]thiazol-2-yl)benzene-1,3-diol] | 274.5 to 276.5 | 
Oc1ccccc1-c1nc2cc(C(F)(F)F)ccc2s1 [Compound 38, 2-(5-(trifluoromethyl)benzo[d]thiazol-2-yl)phenol] | 175 to 176.5 | 
Oc1ccc(-c2nc3ccccc3[nH]2)cc1Br [Compound 56, 4-(1H-benzo[d]imidazol-2-yl)-2-bromophenol] |  | PPARγ activation (competitive activation rate), compared with rosiglitazone [1]: very excellent PPARγ activation agent compared to rosiglitazone
Oc1cc(O)cc(-c2nc3cc(C(F)(F)F)ccc3s2)c1 [Compound 36, 5-(5-(trifluoromethyl)benzo[d]thiazol-2-yl)benzene-1,3-diol] | 256.7 to 260.6 | 
CCOc1cc(C2N[C@H](C(=O)O)CS2)ccc1O (mixture of isomers) [Compound 5, (2R/S,4R)-2-(3-ethoxy-4-hydroxyphenyl)thiazolidine-4-carboxylic acid] | 174.3 to 175.9 | 
COc1cc(C2N[C@H](C(=O)O)CS2)cc(OC)c1OC (mixture of isomers) [Compound 11, (2R/S,4R)-2-(3,4,5-trimethoxyphenyl)thiazolidine-4-carboxylic acid] | 197 to 199.7 | 
O=C(O)[C@@H]1CSC(c2ccc(O)cc2)N1 (mixture of isomers) [Compound 1, (2R/S,4R)-2-(4-hydroxyphenyl)thiazolidine-4-carboxylic acid] | 161.8 to 164.4 | 
COc1ccc(-c2nc3cc(C(F)(F)F)ccc3s2)c(OC)c1 [Compound 37, 2-(2,4-dimethoxyphenyl)-5-(trifluoromethyl)benzo[d]thiazole] | 140.4 to 141.6 | 

The next lines start with results.

melting point [°C] | Compound | other results
129.6 to 130.6 | Oc1cc(O)cc(-c2nc3cc(Cl)ccc3s2)c1 [Compound 90, 5-(5-chlorobenzo[d]thiazol-2-yl)benzene-1,3-diol] | 
159.4 to 160 | COc1cc(-c2nc3cc(Cl)ccc3s2)cc(OC)c1OC [Compound 93, 5-chloro-2-(3,4,5-trimethoxyphenyl)benzo[d]thiazole] | 
121.5 to 122.1 | c1ccc(COc2cccc(-c3nc4ccccc4s3)c2)cc1 [Compound 110, 2-(3-(benzyloxy)phenyl)benzo[d]thiazole] | 
280 to 281.4 | COc1cc(-c2nc3cc(C(=O)O)ccc3[nH]2)cc(OC)c1O [Compound 68, 2-(4-hydroxy-3,5-dimethoxyphenyl)-1H-benzo[d]imidazole-5-carboxylic acid] | 
194.2 to 195.7 | Oc1ccccc1-c1nc2cc(Cl)ccc2s1 [Compound 92, 2-(5-chlorobenzo[d]thiazol-2-yl)phenol] | 
166.1 to 167.2 | c1ccc(COc2ccc(-c3nc4ccccc4s3)cc2)cc1 [Compound 107, 2-(4-(benzyloxy)phenyl)benzo[d]thiazole] | 
132.5 to 134 | COc1cc(-c2nc3cc(C(F)(F)F)ccc3s2)cc(OC)c1OC [Compound 39, 5-(trifluoromethyl)-2-(3,4,5-trimethoxyphenyl)benzo[d]thiazole] | 
277.9 to 280.1 | Oc1ccc(-c2nc3cc(Cl)ccc3s2)c(O)c1 [Compound 84, 4-(5-chlorobenzo[d]thiazol-2-yl)benzene-1,3-diol] | 
138.6 to 140.3 | COc1ccc(-c2nc3cc(Cl)ccc3s2)c(OC)c1 [Compound 91, 5-chloro-2-(2,4-dimethoxyphenyl)benzo[d]thiazole] | 
142.7 to 143.3 | Clc1ccc2sc(-c3ccc(OCc4ccccc4)cc3)nc2c1 [Compound 109, 2-(4-(benzyloxy)phenyl)-5-chlorobenzo[d]thiazole] | 
158.2 to 158.6 | COc1ccc(-c2nc3cc(Cl)ccc3s2)cc1O [Compound 87, 5-(5-chlorobenzo[d]thiazol-2-yl)-2-methoxyphenol] | 
257 to 257.7 | COc1cc(-c2nc3ccccc3[nH]2)cc(OC)c1OC [Compound 54, 2-(3,4,5-trimethoxyphenyl)-1H-benzo[d]imidazole] | 
165.2 to 167.1 | COc1ccc(-c2nc3cc(Cl)ccc3s2)cc1OC [Compound 89, 5-chloro-2-(3,4-dimethoxyphenyl)benzo[d]thiazole] | 
93.8 to 95.1 | FC(F)(F)c1ccc2sc(-c3cccc(OCc4ccccc4)c3)nc2c1 [Compound 111, 2-(3-(Benzyloxy)phenyl)-5-(trifluoromethyl)benzo[d]thiazole] | 
> 300 | COc1cc(-c2nc3cc(C(=O)O)ccc3[nH]2)ccc1O [Compound 60, 2-(4-hydroxy-3-methoxyphenyl)-1H-benzo[d]imidazole-5-carboxylic acid] | 
246.6 to 247.7 | COc1ccc(-c2nc3cc(C(=O)O)ccc3[nH]2)cc1O [Compound 62, 2-(3-hydroxy-4-methoxyphenyl)-1H-benzo[d]imidazole-5-carboxylic acid] | 
194.3 to 195.1 | FC(F)(F)c1ccc2sc(-c3ccc(OCc4ccccc4)cc3)nc2c1 [Compound 108, 2-(4-(benzyloxy)phenyl)-5-(trifluoromethyl)benzo[d]thiazole] | 
> 300 | CCOc1cc(-c2nc3cc(C(=O)O)ccc3[nH]2)ccc1O [Compound 61, 2-(3-ethoxy-4-hydroxyphenyl)-1H-benzo[d]imidazole-5-carboxylic acid] | 
> 300 | O=C(O)c1ccc2[nH]c(-c3ccc(O)cc3)nc2c1 [Compound 57, 2-(4-hydroxyphenyl)-1H-benzo[d]imidazole-5-carboxylic acid] | 

— patent US8889881B2, “Compound having skin-whitening, anti-oxidizing and PPAR activities and medical use therefor” (Pusan National University Industry —University Cooperation …, priority 2011, dated 2014)
